The results in this text go back to US12503471B2, “Triazatricycle compounds for the treatment of autoimmune disease” (Hoffmann-La Roche Inc., priority 2019, dated 2025).

A value given as a limit tells only on which side of the number the result lay.

This data set concerns the target T1, hERG channel (Homo sapiens, UniProt Q12809).
T1 construct: expressed in transfected cells; host or cells: CHO (Chinese hamster ovary)
Nature of the data set: hERG channel inhibition assay. The data set is classed as cell-based. The settings on record: whole-cell patch-clamp; for IC50: CHO cells expressing hERG; for IC20: human, CHO cells stably expressing hERG. Here is the method: hERG Channel Inhibition Assay
The hERG K^+ channels were cloned in humans and stably expressed in a CHO (Chinese hamster ovary) cell line. CHOhERG cells were used for patch-clamp (voltage-clamp, whole-cell) experiments. Cells were stimulated by a voltage pattern to activate hERG channels and conduct IKhERG Currents (rapid delayed outward rectifier potassium current of the hERG channel). After the cells were stabilized for a few minutes, the amplitude and kinetics of IKhERG were recorded at a stimulation frequency of 0.1 Hz (6 bpm). Thereafter, the test compound was added to the preparation at increasing concentrations. For each concentration, an attempt was made to reach a steady-state effect, usually, this was achieved within 3-10 min at which time the next highest concentration was applied. The amplitude and kinetics of IKhERG are recorded in each concentration of the drug which were compared to the control values (taken as 100%). (references: Redfern W S, Carlsson L, Davis A S, Lynch W G, MacKenzie I, Palethorpe S, Siegl P K, Strang I, Sullivan A T, Wallis R, Camm A J, Hammond T G. 2003; Relationships between preclinical cardiac electrophysiology, clinical Q T interval prolongation and torsade de pointes for a broad range of drugs: evidence for a provisional safety margin in drug development. Cardiovasc. Res. 58:32-45, Sanguinetti M C, Tristani-Firouzi M. 2006; hERG potassium channels and cardiac arrhythmia. Nature 440:463-469, Webster R, Leishman D, Walker D. 2002; Towards a drug concentration effect relationship for QT prolongation and torsades de pointes. Curr. Opin. Drug Discov. Devel. 5:116-26).
(Block of hERG is tested as a sign of cardiac risk.)

T1 sequence (Q12809 whole entry): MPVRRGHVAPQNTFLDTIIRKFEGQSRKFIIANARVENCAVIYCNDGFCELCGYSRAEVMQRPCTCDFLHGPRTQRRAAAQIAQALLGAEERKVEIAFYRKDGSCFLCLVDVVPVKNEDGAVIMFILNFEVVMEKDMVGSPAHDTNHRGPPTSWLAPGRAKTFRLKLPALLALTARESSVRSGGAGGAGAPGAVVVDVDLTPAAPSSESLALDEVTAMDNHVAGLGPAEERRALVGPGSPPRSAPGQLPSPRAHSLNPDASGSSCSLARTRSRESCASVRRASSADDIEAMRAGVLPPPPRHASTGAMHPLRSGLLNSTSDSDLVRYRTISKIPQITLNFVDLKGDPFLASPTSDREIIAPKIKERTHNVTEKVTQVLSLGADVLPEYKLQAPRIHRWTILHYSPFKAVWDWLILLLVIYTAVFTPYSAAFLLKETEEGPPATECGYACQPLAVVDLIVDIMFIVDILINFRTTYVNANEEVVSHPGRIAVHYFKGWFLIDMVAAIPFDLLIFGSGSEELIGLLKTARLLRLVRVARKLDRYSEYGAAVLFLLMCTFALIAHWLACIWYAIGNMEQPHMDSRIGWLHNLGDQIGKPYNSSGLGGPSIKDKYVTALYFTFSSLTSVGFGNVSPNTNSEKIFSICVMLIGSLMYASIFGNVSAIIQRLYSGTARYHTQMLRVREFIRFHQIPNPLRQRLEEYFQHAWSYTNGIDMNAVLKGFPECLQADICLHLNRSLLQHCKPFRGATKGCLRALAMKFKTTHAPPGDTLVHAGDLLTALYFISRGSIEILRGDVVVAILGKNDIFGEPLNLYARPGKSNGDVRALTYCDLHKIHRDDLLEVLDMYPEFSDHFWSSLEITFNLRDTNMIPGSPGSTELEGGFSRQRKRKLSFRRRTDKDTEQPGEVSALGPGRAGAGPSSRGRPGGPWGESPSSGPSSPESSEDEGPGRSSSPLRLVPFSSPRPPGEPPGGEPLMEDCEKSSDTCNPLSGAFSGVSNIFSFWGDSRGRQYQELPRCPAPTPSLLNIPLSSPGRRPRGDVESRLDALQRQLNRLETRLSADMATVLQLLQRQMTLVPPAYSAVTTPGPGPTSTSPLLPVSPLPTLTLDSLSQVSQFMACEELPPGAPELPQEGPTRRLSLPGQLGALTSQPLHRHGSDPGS

Take `[2H]c1ccc2c(N3C[C@@H](C)N4Cc5nc(N6CC[C@](C)(N)C6)ccc5[C@H]4C3)ccc(C#N)c2n1` [Example 8, 5-[(2S,6R)-11-[(3S)-3-amino-3-methyl-pyrrolidin-1-yl]-6-methyl-4,7,10-triazatricyclo[7.4.0.02,7]trideca-1(9),10,12-trien-4-yl]-2-deuterio-quinoline-8-carbonitrile]: the IC50 is more than 20 µM and the IC20 was determined as 5.5 µM.
Taken in the same sequence, the figures for `[2H]c1ccc2c(N3C[C@@H](C)N4Cc5nc(N6CCC7(CNC7)C6)ccc5[C@H]4C3)ccc(C#N)c2n1` [Example 9, 2-Deuterio-5-[(2S,6R)-11-(2,6-diazaspiro[3.4]octan-6-yl)-6-methyl-4,7,10-triazatricyclo[7.4.0.02,7]trideca-1(9),10,12-trien-4-yl]quinoline-8-carbonitrile] were more than 20 µM and more than 10 µM.
Take `[2H]c1ccc2c(N3C[C@@H](C)N4Cc5nc(N6C[C@H]7C[C@@H]6CN7)ccc5[C@H]4C3)ccc(C#N)c2n1` [Example 17, 2-Deuterio-5-[(2S,6R)-11-[(1R,4R)-2,5-diazabicyclo[2.2.1]heptan-2-yl]-6-methyl-4,7,10-triazatricyclo[7.4.0.02,7]trideca-1(9),10,12-trien-4-yl]quinoline-8-carbonitrile]: the IC50 is more than 20 µM and the IC20 is more than 10 µM.
Taken in the same sequence, the figures for `C[C@@H]1CN(c2ccc(C#N)c3ncccc23)C[C@@H]2c3ccc(N4CC5CNCC(C4)O5)nc3CN12` [Example 6, 5-[(2S,6R)-6-methyl-11-(9-oxa-3,7-diazabicyclo[3.3.1]nonan-3-yl)-4,7,10-triazatricyclo[7.4.0.02,7]trideca-1(9),10,12-trien-4-yl]quinoline-8-carbonitrile] were more than 20 µM and more than 10 µM.
For `C[C@@H]1CN(c2ccc(C#N)c3ncccc23)C[C@@H]2c3ccc(N4CCCNCC4)nc3CN12` [Example 20, 5-[(2S,6R)-11-(1,4-diazepan-1-yl)-6-methyl-4,7,10-triazatricyclo[7.4.0.02,7]trideca-1(9),10,12-trien-4-yl]quinoline-8-carbonitrile] the same measures were more than 20 µM and more than 10 µM.
For the compound `[2H]c1ccc2c(N3C[C@@H](C)N4Cc5nc(N6CC[C@@](C)(N)C6)ccc5[C@H]4C3)ccc(C#N)c2n1` [Example 7, 5-[(2S,6R)-11-[(3R)-3-amino-3-methyl-pyrrolidin-1-yl]-6-methyl-4,7,10-triazatricyclo[7.4.0.02,7]trideca-1(9),10,12-trien-4-yl]-2-deuterio-quinoline-8-carbonitrile], the IC50 is more than 20 µM and the IC20 was more than 10 µM.

For orientation: IC50 means the concentration that inhibits the measured activity by half. Broadly, the IC20 is the concentration at which the effect reaches the 20% level. Low values mean greater potency, high ones weaker potency.
